In patent EP0526502B1, “PHENOLIC AMINE DEPIGMENTING AND ANTIMELANOMA AGENTS” (The Governors of the University of Alberta, priority 1990, dated 1991):
Several values for one entry are separate records, joined by “and”; a condition that tells them apart may be missing. Identical values can stand only once.

Legend:
B16 melanoma = test: In vivo growth inhibition of s.c. inoculated B16 melanoma; design: species or system C57BL/6J mice; details: 200 mg/Kg i.p. daily for nine days, day 12 or 13
Protocol: The in vivo antimelanoma effect of the compounds were evaluated by percent growth inhibition of inoculated tumour (%g.i.). The percent g.i. was computed from the mean tumour volume at day 12 or 13 of the experiments; i.e., 100 x (1- treated group/control group). […] To further examine whether a minimal dose of N-Ac-4-S-CAP, 200 mg/Kg has an antimelanoma effect, three groups of mice were treated with N-Ac-4-S-CAP. […] One of the advantages of N-Ac-4-S-CAP over 4-S-CAP was that it had much higher LD⁵⁰ (as high as 1400 mg/Kg of body weight, and therefore a greater range of safety).

Mushroom tyrosinase = Mushroom tyrosinase (Agaricus bisporus, UniProt C7FF04); test: Enzyme kinetics with tyrosinase (substrate disappearance by HPLC, Lineweaver-Burk); type: biochemical; details: result in words
Protocol: (§1) Mushroom tyrosinase (400 units/mg) and plasma MAO (1000 units/gm) were obtained from Sigma Chemical Co. (St. Louis, MO, USA). A reaction mixture consisted of a substrate of 7 to 8 different concentrations (40 to 500 »M for mushroom tyrosinase and 20 to 200 »M for MAO) and of either mushroom tyrosinase (2.5 »g) or MAO (10 »g) in 1.0 mL of 0.05 M sodium phosphate buffer, pH 6.8 and 7.4 respectively. The reactions were carried out at 37°C in a shaking water bath, and stopped by taking 100 »L of the reaction mixture and adding it to 900 »L of 0.4 M HCLO₄. The disappearance of substrate was followed using HPLC (high pressure liquid chromatography) Km and Vmax values were calculated from the Lineweaver-Burk plots.

follicular melanocytes = test: Depigmentation of new hair after plucking (PTCA/eumelanin content of hair follicles); type: in vivo, C57BL/6J black mice; details: for PTCA Content / Depigmentation: hair harvested day 22
Protocol: Breeding pairs of C57BL/6J black mice were purchased from Jackson Laboratory, Bar Harbor, Maine. Female progeny were used in this testing when approximately 8 weeks old and weighing 17 grams.
Black hairs were plucked manually from the back of the mice to initiate new anagen growth and activate follicular melanocytes with increased tyrosinase activity. Thirty mice were randomized into 6 groups of 5 (1 control and 1 for each compound). Starting on day 1, daily for 14 days the agent was injected i.p. or was infiltrated s.c. in an area where hair follicles had been plucked; the dose was 300 mg/kg body weight.
In the same 30 mice, hair follicles were harvested on day 22 (early telogen phase) and their eumelanin content analyzed. Details of the assay, including chemical degration of melanin and high-performance liquid chromatography (HPLC) were as described in Ito et al, "Quantitative Analysis of Eumelanin and Pheomelanin in Hair and Melanosomes" J. Invest. Dermatol 80:268-272, 1983. Briefly, a 10-mg hair sample is homogenized in water at a concentration of 10 mg/ml; the 200-»l homogenate is transferred to a screw-capped test tube, mixed with 1M H₂SO₄ (800 »L) and oxidized with 3% KMnO₄. The product, pyrrole-2,3,5-tricarboxylic acid (PTCA), is analyzed by HPLC with a UVL detector; samples are measured in duplicate. The eumelanin content is expressed as PTCA (ng/mg) against the PCTA content of BALB/c albino mice as control (≦ 10 ng/mg, the background value with our method, in which 1 ng corresponds roughly to a eumelanin content of 50 ng), and the degree of depigmentation is expressed as a percentage: (PTCA content of control sampleminusPTCA content of experimental sample)/(PCTA content of control sample) x 100 [formula] .

plasma MAO = target: T1, plasma MAO (Bos taurus, UniProt Q29437); test: Enzyme kinetics with monoamineoxidase (substrate disappearance by HPLC, Lineweaver-Burk); type: biochemical; details: result in words
T1 construct: purchased Sigma Chemical Co. (St. Louis, MO, USA)
T1 sequence (Q29437 17-762): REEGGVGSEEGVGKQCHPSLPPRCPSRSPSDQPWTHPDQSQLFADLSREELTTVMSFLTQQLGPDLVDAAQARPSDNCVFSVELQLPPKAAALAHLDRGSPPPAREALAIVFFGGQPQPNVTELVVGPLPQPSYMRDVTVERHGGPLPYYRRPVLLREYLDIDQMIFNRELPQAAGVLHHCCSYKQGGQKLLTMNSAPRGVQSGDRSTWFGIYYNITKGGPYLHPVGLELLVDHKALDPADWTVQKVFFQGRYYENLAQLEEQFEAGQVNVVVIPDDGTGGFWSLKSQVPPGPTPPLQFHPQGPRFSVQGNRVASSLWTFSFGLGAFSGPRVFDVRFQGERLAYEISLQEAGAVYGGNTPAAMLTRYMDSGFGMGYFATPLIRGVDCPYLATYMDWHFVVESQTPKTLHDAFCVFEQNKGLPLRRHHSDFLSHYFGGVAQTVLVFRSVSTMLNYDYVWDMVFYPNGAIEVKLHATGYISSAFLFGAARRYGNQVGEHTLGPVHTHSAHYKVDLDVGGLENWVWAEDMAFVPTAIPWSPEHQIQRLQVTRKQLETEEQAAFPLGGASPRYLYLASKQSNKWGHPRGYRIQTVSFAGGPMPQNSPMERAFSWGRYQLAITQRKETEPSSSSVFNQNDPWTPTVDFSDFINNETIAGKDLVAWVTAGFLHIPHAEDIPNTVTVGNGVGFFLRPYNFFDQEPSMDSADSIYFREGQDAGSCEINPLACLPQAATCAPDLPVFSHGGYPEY
Protocol: as §1

B16F10 melanoma = test: Melanoma-colony formation in the lungs; type: in vivo, mice; details: 300 mg/kg i.p. daily for 14 days from day five; lungs excised day 26
Protocol: Murine B16F10 melanoma cell line with a strong metastatic property to form tumour colonies in the lungs was obtained from Dr. Longenecker, Department of Immunology, University of Alberta. Such cell line is well recognized and readily available as reported in Miura et al, supra. The cells were grown in T-75 flasks in dulbecco's MEM available from Gipco Lab Inc., Grand Island, New York, supplemented with 10% fetal calf serum, also obtained from Gipco, penicillin (100 »/ml) and streptomycin (100 »g/ml). The cells were incubated at 37°C in humidified atmosphere of 5% CO₂ in air. The cells were harvested by applying a thin layer of 0.25% trypsin solution in EDTA, washed and resuspended in cold N saline solution. Viable cells were identified by trypan blue dye exclusion and counted. The cell suspension was diluted to the desired concentration. Three groups of mice were studied using a control 4-S-CAP and N-Ac-4-S-CAP as the active agents in the treatment. On day zero, the mice were inoculated via the lateral tail vein with 5 x 10⁴ cells in 0.2 ml of N saline. The test drugs were dissolved in normal saline, sterilized by membrane filtration, and administered in a dose of 300 mg/Kg (4-S-CAP) or 900 mg/Kg (N-Ac-4-S-CAP); starting on day five, the control solution or drug was injected i.p. daily for 14 days. On day 26, the mice were killed by cervical dislocation, their lungs were removed, and the number of melanoma colonies was counted under a dissecting microscope. The results were expressed as percentage reduction in the number of colonies: [a - b/a] x 100, where a = colonies in control group and b = colonies in experimental group.

melanocytes = test: Light and electron microscopy of melanocytes in regrowing hair follicles; type: in vivo, mice; details: for electron microscopy of hair follicles: melanocytes and melanosomes: i.p. injection for 10 days
Protocol: In six groups of 4 mice (1 control and 1 for each compound) were treated daily with the control or compound injected i.p. The compounds tested were 4-S-CAP, N-Ac-4-S-CAP and α-Me-4-S-CAP. Samples of skin and regrowing hair follicles were excised under brief general anaesthesia on day 10 (late anagen phase), fixed in Karnovsky's solution (2.5% glutaraldehyde and 2.5% paraformaldehyde in 0l1 M cacodylate buffer), and refixed in 1% osmium tetroxide in cadodylate buffer. Tissues were stained en bloc with 1.5% uranyl acetate in o.1 M veronal buffer for 30min, dehydrated in graded ethanol solutions, embedded in epoxy resin, and sectioned with a Potter-Blum ultramicrotome MT II. Sections 1.0 »m thick were stained with methylene blue for light microscopy, thin sections were stained with led citrate for electron microscopy.

[1] = acute toxicity evaluated from 100 to 1600 mg/Kg; Miura et al; cited from earlier work
[2] = Acute toxicity / lethal dose and maximum tolerable dose; details: mouse, in vivo
Protocol: 3:1-85 1972. In accordance with this Protocol, ten to fifteen mice were used in each test group. They were weighed and randomized at day one after s.c. inoculation of B16 melanoma cells. From day five, the phenolic melanin precursors were administered i.p. daily for nine days. The test compounds were dissolved in normal saline, and sterilized by heating to 100°C for 2 minutes. […] They were administered i.p. with the following doses: 400 mg/Kg - 4-S-CAP; 200 to 300 mg/Kg - 4-S-CAP; and 200 to 1200 mg/Kg - N-Ac-4-S-CAP. A catalytic amount of L-dopa, 25 mg/Kg and antidecarboxylase, carbidopa, 400 mg/Kg, were also administered. Carbidopa was given one hour prior to L-dopa administration. DTIC (NSC 4538) was used as a control drug at a dose of 60 mg/Kg. Acute toxicity of 4-S-CP and 4-S-CAP was evaluated from 100 to 1600 mg/Kg.
The B16 mouse melanoma was maintained by s.c. inoculation of tumour cells into the back of C57BL7J mice (5 to 6 weeks, female). […] Briefly, excised tumours were homogenized in normal saline. The homogenized tumour cells were then passed through a sterile 80 mesh stainless steel screen, washed with normal saline, centrifuged (500 g. for 10 minutes) and resuspended in normal saline. Suspensions of viable melanoma cells at the concentration of 1 x 10⁶ per 0.1 ml were inoculated s.c. into both the right and left inguinal areas of C57BL/6J mice (female, 5 to 6 weeks old, 18 to 20 gm).

[3] = Route s.c., 300 mg/kg daily for 14 days
[4] = Route s.c., 300 mg/kg daily for 14 days, 300 mg/kg
[5] = Route: i.p., 300 mg/kg daily for 14 days
[6] = Route: i.p., 300 mg/kg daily for 14 days, 300 mg/kg

Chain of Mushroom tyrosinase (C7FF04 1-392): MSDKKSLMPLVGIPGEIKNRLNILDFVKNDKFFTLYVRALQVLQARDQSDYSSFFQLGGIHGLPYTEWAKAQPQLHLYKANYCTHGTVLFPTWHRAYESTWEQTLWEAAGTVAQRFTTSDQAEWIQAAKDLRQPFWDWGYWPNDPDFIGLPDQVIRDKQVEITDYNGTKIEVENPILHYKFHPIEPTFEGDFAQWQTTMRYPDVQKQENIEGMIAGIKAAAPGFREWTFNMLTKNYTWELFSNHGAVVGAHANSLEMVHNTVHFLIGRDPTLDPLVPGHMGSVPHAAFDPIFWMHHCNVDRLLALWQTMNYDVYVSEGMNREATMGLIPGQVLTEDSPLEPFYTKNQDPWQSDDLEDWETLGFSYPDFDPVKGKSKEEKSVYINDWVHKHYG

| Structure (SMILES) | PTCA Content (follicular melanocytes; [3]) [ng/mg] | Depigmentation (follicular melanocytes; [4]) | PTCA Content (follicular melanocytes; [5]) [ng/mg] | Depigmentation (follicular melanocytes; [6]) | electron microscopy of hair follicles: melanocytes and melanosomes (melanocytes) | lethal dose [1] [mg/kg] | Depigmentation (follicular melanocytes; [3]) [%] | Depigmentation (follicular melanocytes; [5]) [%] | further results |
| --- | --- | --- | --- | --- | --- | --- | --- | --- | --- |
| NCCSc1ccc(O)cc1 [4-S-CAP, 4-S-cysteaminylphenol, reference compound] | 458.3 ± 107.6 | 47% and 46.9% | 146.1 ± 72.4 | 87% and 86.6% | contained immature melanosomes at stages II and III | 400 |  |  | %Gi (B16 melanoma; Experiment I): 54.0%; Tumour Volume (B16 melanoma; Experiment I): 239 ± 39 mm^3; %Gi (B16 melanoma; Experiment II): 25.1%; Tumour Volume (B16 melanoma; Experiment II): 405 ± 61 mm^3; tyrosinase substrate (Mushroom tyrosinase): a substrate for both plasma MAO and tyrosinase; substrate for plasma MAO (plasma MAO): a substrate for both plasma MAO and tyrosinase; No. of Colonies % control (B16F10 melanoma): 30% and 32.4%; No. of Colonies per pair of lungs (B16F10 melanoma): 28.0 ± 14.5; light microscopy of hair follicles: functioning melanocytes and melanin pigments (melanocytes; i.p. daily, day 10 (late anagen phase)): the hair follicles contained functioning melanocytes and melanin pigments transferred into keratonocytes, although they were much sparser than in the controls |
| N[C@@H](CSc1ccc(O)cc1)C(=O)O [4-S-CP, 4-S-cysteinylphenol] |  |  |  |  |  | 600 |  |  |  |
| NCCCSc1ccc(O)cc1 [4-S-HomoCAP, 4-S-homo-CAP] | 397.7 ± 279.3 |  | 956.7 ± 77.9 |  |  |  | 63.5 | 12.1 |  |
| CN(C)CCSc1ccc(O)cc1 [N,N-DiMe-4-S-CAP, N,N'-dimethyl-4-S-CAP] | 1023.4 ± 110.1 |  | 1009.0 ± 193.5 |  |  |  | 6.1 | 7.3 | visible pigmentation of new hair (follicular melanocytes; i.p. or s.c. route, result in words): no visible changes in pigmentation in new follicles |
| CC(N)CSc1ccc(O)cc1 (stereo not drawn) [α-Me-4-S-CAP, α-methyl-4-S-CAP] | 557.9 ± 47.2 | 58% and 57.9% | 121.3 ± 81.9 | 89% and 88.9% | contained immature melanosomes at stages II and III |  |  |  | side-effects (follicular melanocytes; 300 mg/kg daily for 14 days, i.p. or s.c., irritation seen after s.c. administration): some irritation of the skin in the plucked area; per single dose toxicity levels [2]: ~500 mg/kg of body weight |
